According to ChEMBL document CHEMBL3507680, “University of Dundee, Gates Library screen for HepG2 cell viability”:

test: Human HepG2 cell viability assay in 384 well format; type: toxicity, cell-based; set-up: dose 125 nL, time 70.5 hour; cytotoxicity at 70.5 h: concentration not given beside the values; conditions: HepG2 cells, read-out: Inhibition

Structure (SMILES)	cytotoxicity at 70.5 h
CCn1ccnc1CN1CCN(CCC(=O)NC(C)(C)C)CC1C (centres undefined)	-1.52%
Cc1cc(CN2CCN(CC(O)c3ccccc3)CC2)no1 (centres undefined)	0.624%
CN(Cc1ncc(-c2ccccc2C(=O)O)s1)c1ncccn1	31.6%
Cc1csc(CCNC(=O)c2ccc(N(C)C)c(F)c2)n1	13.6%
COCCO[C@H]1CCN(c2cc(OC)ncn2)[C@H]1Cc1cnn(C)c1	-4.71%
O=C(Nc1ccc(CCN2CCC(O)CC2)cc1)C1CCCCC1	-2.92%
CC(C)(O)CN1CCC(=O)N(Cc2ccco2)Cc2cc(F)ccc21	3.68%
CNC(=O)Cc1coc(-c2ccc(F)cc2)n1	-16.9%
CCCNC(=O)COc1cc(C)c2c(C)nn(-c3ccccc3)c2n1	-4.53%
COc1ccc(CCN2CCOC(Cn3nc(C)nc3C)C2)cc1 (centres undefined)	-5.86%
Cn1ccnc1SCCNC1CCN(c2nc3ccccc3s2)CC1	-1.58%
CN(Cc1ccco1)c1ccc(-c2nccn2C)nn1	9.03%
OCCN1CCC(CNCCOCC(F)(F)F)CC1	3.98%
CCN1CC(COC(=O)c2ccc(N(C)C)cc2F)CC1=O (centres undefined)	-3.33%
CCOc1ccc(Cl)c(C(=O)N2CCN(CC(O)CC)CC2)n1 (centres undefined)	-14%
Cn1cc(-c2cnc3n2CCC32CCN(S(=O)(=O)C3CC3)CC2)cn1	-9.03%
O=C(c1ccco1)N1CCCC2(CCN(c3nncs3)C2)C1 (centres undefined)	-5.1%
CC(C)(CO)CCCNC(=O)N1CCc2c(F)ccc(F)c2C1	-2.98%
CCc1noc(C2CCN(C(=O)CCn3nc(C)cc3C)CC2)n1	-12.9%
O=C1CN(c2ccc(CNC(=O)NCC3CCOC3)cc2)CCN1 (centres undefined)	-5.59%
CCn1c(NCc2ccccc2)nc2c(C)nn(C)c2c1=O	-9.48%
CCn1nc(C)c(NC(=O)CCn2ncc3cc(C)ccc32)c1C	13.9%
CCc1nc(C2CCCN(C(=O)CN(C)S(C)(=O)=O)C2)no1 (centres undefined)	3.45%

Structure (SMILES)	cytotoxicity at 70.5 h
CN(C)c1ncncc1NC(=O)Cc1c[nH]c2ccc(F)cc12	-2.95%
CS(=O)(=O)c1nnc(NC(=O)CCc2cccc(Cl)c2)[nH]1	-7.49%
C=C(C)CNC1CCCN(Cc2noc(C3CC3)n2)C1 (centres undefined)	-5.26%
COc1ccc2c(c1)OCC(Cc1ccc(CN)cn1)C2 (centres undefined)	-7.48%
COc1ccc(C)cc1CC(=O)N1CCN(CC(C)O)CC1 (centres undefined)	-5.05%
O=S(=O)(c1ccccc1)N1CC[C@]2(C[C@@H](OCC3CC3)CO2)C1	-10.2%
CCOC1CC2(CCN(Cc3cccn3C)CC2)C1	2.31%
Cc1nonc1NC(=O)CCn1cc(Br)ccc1=O	6.64%
CCO[C@@H]1CN(S(=O)(=O)c2cn(C)cn2)[C@@H]2CCCO[C@@H]21	-10.2%
O=C(N[C@@H]1CNCCC[C@H]1O)c1ccc(OCCN2CCCC2)cc1	-3.24%
CCN(C)c1ncnc2c1CCN(Cc1ccncc1)CC2	-0.527%
CC(CN1CCOC1=O)NC(=O)c1cccc(C#N)c1 (centres undefined)	-3.83%
Cc1ccc(C)c(OC2CCN(C(=O)NCC(=O)N3CCCC3)CC2)c1	-5.3%
O=C(NCc1cccc(N2CC=CC2)c1)NC1CC1	-2.22%
CC(SCc1cc(Br)cc2cccnc12)C(N)=O (centres undefined)	-16%
CC(C)NC(=O)N1CCN2C(=O)OC[C@H]2C1	10.9%
O=C1N(Cc2ccc(F)c(F)c2)CCCC1(O)CNCc1ccccn1 (centres undefined)	-4.31%
CCC(C(=O)NC1(COC)CCCC1)n1cccn1 (centres undefined)	5.08%
O=C(Nc1ccccc1F)N(CCO)Cc1ccsc1	31.8%
c1cc(CNCC2CNc3ccnn3C2)cc(Cn2cccn2)c1 (centres undefined)	4.46%
CCN1CCC2(CC1)C(=O)Nc1ccc(C(=O)NC)cc12	4.51%
Cc1nnsc1CN1C[C@H]2CC[C@@H]1CN(Cc1ccc(F)cc1)C2	27.1%
Cc1cc(CNC(=O)N2CCN(C(C)c3cccnc3)CC2)c(C)o1 (centres undefined)	-0.922%

Structure (SMILES)	cytotoxicity at 70.5 h
COCCNS(=O)(=O)c1c(C)sc2ccccc12	-4.03%
COc1c(C2CCCN2C(=O)c2ccnn2C)c(C)nn1C (centres undefined)	-4.02%
CC(CCSc1ccccc1)N1CCN(C(=O)c2cccs2)CC1 (centres undefined)	35.4%
Brc1cc(CNCc2nnc3n2CCC3)cs1	-8.54%
Cn1cc(C(=O)NC[C@H]2OC[C@@H]3CCN(C4CCOCC4)C[C@@H]32)cn1	-3.43%
CN(C)C(=O)CS(=O)(=O)Cc1cc(Cl)c2c(c1)OCCO2	3.21%
O=S1(=O)C[C@@H]2[C@H](C1)N(Cc1cc(Cl)cc(Cl)c1)CCN2CCO	-1.4%
CC(=O)Nc1cccc(OCCNC(=O)N(C)Cc2ccncc2)c1	20.7%
O=c1ccc(S(=O)(=O)N2CCCC2)cn1CC1CCCCO1 (centres undefined)	-11.1%
O=C(C1CCOCC1)N1CCc2ncc(CN3CCOCC3)n2CC1	-11.5%
COCCN1CCCC2(CCN(c3ccsc3)C2=O)C1 (centres undefined)	-7.27%
CCN(CC)S(=O)(=O)N(CC)Cc1ccc2c(c1)OCCO2	-10.6%
CCN(CC)CCSc1ncnc2[nH]ncc12	1.79%
CC(C(=O)Nc1ccccc1Sc1ccccc1)S(C)(=O)=O (centres undefined)	-3.46%
O=C(NCc1ccccn1)NC1CCCN(c2ncccn2)C1 (centres undefined)	-9.45%
Cc1cnn(C2CCCN(C(=O)Cc3cn4ccccc4n3)C2)c1 (centres undefined)	-12.4%
Cn1cc(-c2nc(C(=O)N3CCCC3c3cnn(C)c3)cs2)cn1 (centres undefined)	-5.1%
CN(C)CCN1CC(C(=O)N2CCC(c3cccc(O)c3)CC2)CC1=O (centres undefined)	2.7%
O=c1[nH]c(N2CC(O)C2)nc2c1cnn2-c1ccccc1	-9.7%
COC(=O)c1ccc(CN2CCN(Cc3nc(C)no3)CC2)s1	-7.55%
Cc1cn(CC(=O)NCC(=O)NC2CC2)c2ccccc12	-0.742%
CC(C)=CCN1CC2(CCN(Cc3cccc(C#N)c3)CC2)CC1=O	8.66%
CC(C)NC(=O)NC[C@H]1OC[C@@H](NCc2ccc(F)cc2)[C@@H]1O	-4.37%

Structure (SMILES)	cytotoxicity at 70.5 h
COCC[C@]1(O)CCN(c2ncc(Cl)cc2F)C[C@H]1C	-12.3%
CCN(CC)C(C(=O)Nc1ccc2c(c1)CCC(=O)N2)c1ccccc1 (centres undefined)	-11.2%
O=C(N[C@@H]1CN[C@@H]2CCCO[C@@H]21)c1cscn1	-3.45%
COCC(=O)N1CCCC(c2cc(C(F)F)n3ncnc3n2)C1 (centres undefined)	-2.53%
CC1CCc2nn(CCNC(=O)Cc3ccc(F)cc3)c(=O)cc2C1 (centres undefined)	-4.91%
CC(C)c1nc(CN(C)C(=O)CCNC(=O)c2ccccc2F)no1	19.8%
O=C(Nc1cccc(F)c1)C1CCCN1c1nccs1 (centres undefined)	1.52%
O=C(Nc1cnccn1)[C@H]1CC[C@@H]2[C@@H](CCN2Cc2ccccn2)O1	-0.71%
c1csc(-c2nc(CN3CCCCC3Cn3cncn3)cs2)c1 (centres undefined)	-14.9%
COc1c(NC(=O)N(C)CCOc2ccc(F)cc2)c(C)nn1C	2.48%
CN(C)c1cccc(C2CCN(C3COCC3O)CC2)n1 (centres undefined)	-4.45%
O=C(NCc1ccccn1)NCC(c1ccco1)N1CCCCC1 (centres undefined)	-5.04%
COCCC(=O)N1CCCC([C@@H]2C[C@H](C(F)F)n3ncnc3N2)C1 (some centres undefined)	-4.06%
CCn1cnnc1CNC(=O)NCC(c1cccs1)N1CCCC1 (centres undefined)	-14%
CN(Cc1cnn(C)c1)C(=O)NCCc1ccc2c(c1)OCCO2	-2.65%
Cn1cc(CN2CCCC23CCN(C(=O)c2ccsc2)CC3)cn1	-5.87%
CCn1ncc2c1C(COC)CN(Cc1ccsc1)C2 (centres undefined)	1.82%
c1cc(-c2c[nH]c([C@@H]3COCCN3Cc3csnn3)n2)ccn1	12.8%
Cc1nc[nH]c1-c1nc2cc(S(=O)(=O)N3CCCC3)ccc2n1C	-2.05%
N#Cc1ccccc1OCCN1CCC(N2CCNC2=O)CC1	-11.9%
O=C(COc1coc(CN2CCCCC2)cc1=O)Nc1cccc(Cl)c1	-7.03%
CCOC(=O)N1CCN(C(=O)c2cc(OCC)c3ccoc3c2)CC1	50%
CCOc1ccc(S(=O)(=O)N(CCOC)Cc2ccncc2)cc1F	35.3%

Structure (SMILES)	cytotoxicity at 70.5 h
COc1cccc(C(CO)NC(=O)NC(C)C)c1 (centres undefined)	11.8%
CCCNc1nnc(S(=O)(=O)CCOCC)s1	-0.768%
COCCC(=O)N1CCn2cc(CN3CCN(C)CC3)nc2C1	0.542%
Cc1ccc2nc(C3CCCN3Cc3cccc(CCN)c3)[nH]c2c1 (centres undefined)	-4.63%
COc1ccc(CN2C[C@@H]3COC[C@]3(CN(C)C)C2)cc1	-12.6%
CCc1ccc(C(=O)O)cc1S(=O)(=O)Nc1ccc(F)c(C#N)c1	6.85%
O=C(CN1CCC(c2cccc(F)c2)C1)NCC(F)(F)F (centres undefined)	26.9%
CC(OCC1CC1)C(=O)N1CCCN(Cc2cnn(C)c2)CC1 (centres undefined)	24.6%
O=C(Cc1c[nH]c(=O)[nH]c1=O)N1CCCCC1CCc1cccc(O)c1 (centres undefined)	-5.29%
CN(C)CC1CN(Cc2ccc3c(c2)OCO3)Cc2nccn2C1 (centres undefined)	27.2%
CCCc1cc(N2CCCC2Cn2nc(C)cc2C)n2ncnc2n1 (centres undefined)	-5.55%
CCOc1ccc(CNC(=O)N2CCCC(CO)C2)cc1F (centres undefined)	0.25%
O=C(NCC1CC2(CO1)CN(c1ncccn1)C2)C1CCC1 (centres undefined)	2.73%
COc1ccc2c(c1)CN(Cc1nc3ccsc3c(=O)[nH]1)CC2	5.83%
NS(=O)(=O)c1ccc(N2CCN(CCCc3cn[nH]c3)CC2)cc1	15.8%
CC(C)c1nc(C(=O)N2CCOCC2CC(=O)c2ccco2)c[nH]1 (centres undefined)	-14.6%
CC(C)c1cc(C2CCN(C(=O)Cn3cnnn3)CC2)[nH]n1	-6.46%
O=C1CO[C@H]2CN(Cc3cccc(F)c3F)C[C@@H]2N1C1CCOCC1	41.9%
O=C(c1ccncc1F)N1C[C@H]2CC[C@@H]1CN(Cc1cccnc1)C2	-4.95%
c1ccc(OCCN2CCN(c3ncnc4[nH]ccc34)CC2)cc1	24.7%
Cc1ccnc(CNC(=O)C2CC(=O)N(CCN(C)C)C2)c1 (centres undefined)	-7.06%
COc1cccc(-c2n[nH]cc2C(=O)NC(C)CC(=O)O)c1 (centres undefined)	-2.91%
